ChEMBL document CHEMBL4177646, “Discovery of novel nitroimidazole enols as Pseudomonas aeruginosa DNA cleavage agents” (Bioorg Med Chem, 2017)
Converted amounts (≈) assume the structure as drawn.

Experiments:
Type in all cases: functional
Pseudomonas aeruginosa [1] = test: Antibacterial activity against drug-resistant Pseudomonas aeruginosa after 24 hrs by micro broth dilution method
Staphylococcus aureus [2] = test: Antibacterial activity against Staphylococcus aureus ATCC 25923 after 24 hrs by micro broth dilution method; conditions: ATCC 25923, 24 h
Staphylococcus aureus [3] = test: Antibacterial activity against methicillin-resistant Staphylococcus aureus N315 after 24 hrs by micro broth dilution method; conditions: N315, 24 h
Staphylococcus aureus [4] = test: Antibacterial activity against drug-resistant Staphylococcus aureus after 24 hrs by micro broth dilution method
Pseudomonas aeruginosa [5] = test: Antibacterial activity against Pseudomonas aeruginosa ATCC 27853 after 24 hrs by micro broth dilution method; conditions: ATCC 27853, 24 h
Candida tropicalis = test: Antifungal activity against Candida tropicalis after 24 hrs by micro broth dilution method
Candida albicans [6] = test: Antifungal activity against drug-resistant Candida albicans after 24 hrs by micro broth dilution method
Escherichia coli [7] = test: Antibacterial activity against Escherichia coli ATCC 25922 after 24 hrs by micro broth dilution method; conditions: ATCC 25922, 24 h
Pseudomonas aeruginosa [8] = test: Potency index, ratio of metronidazole MIC to compound MIC for Pseudomonas aeruginosa ATCC 27853
Staphylococcus aureus [9] = test: Antibacterial activity against Staphylococcus aureus ATCC 29213 after 24 hrs by micro broth dilution method; conditions: ATCC 29213, 24 h
Candida albicans [10] = test: Antifungal activity against Candida albicans ATCC 90023 after 24 hrs by micro broth dilution method; conditions: ATCC 90023, 24 h
Escherichia coli [11] = test: Antibacterial activity against drug-resistant Escherichia coli after 24 hrs by micro broth dilution method
Pseudomonas aeruginosa [12] = test: Potency index, ratio of norfloxacin MIC to compound MIC for Pseudomonas aeruginosa ATCC 27853

Structure (SMILES) | MIC (Pseudomonas aeruginosa [1]) [µM] | MIC (Staphylococcus aureus [2]) [µM] | MIC (Staphylococcus aureus [3]) [µM] | MIC (Staphylococcus aureus [4]) [µM] | MIC (Pseudomonas aeruginosa [5]) [µM] | MIC (Candida tropicalis) [µg/mL] | MIC (Candida albicans [6]) [µg/mL] | MIC (Escherichia coli [7]) [µM] | Ratio (Pseudomonas aeruginosa [8]) | MIC (Staphylococcus aureus [9]) [µM] | MIC (Candida albicans [10]) [µg/mL] | MIC (Escherichia coli [11]) [µM] | Ratio (Pseudomonas aeruginosa [12])
Cc1ncc([N+](=O)[O-])n1/C(=C/c1ccc(N(C)C)cc1)C(C)O (centres undefined) | 1620 (≈ 513 µg/mL) | 810 (≈ 256 µg/mL) | 1620 (≈ 513 µg/mL) | 1620 (≈ 513 µg/mL) | 400 (≈ 127 µg/mL) | 128 (≈ 405 µM) | 512 (≈ 1620 µM) | 810 (≈ 256 µg/mL) | 7 | 1620 (≈ 513 µg/mL) | 64 (≈ 202 µM) | 1620 (≈ 513 µg/mL) | 4
Cc1ncc([N+](=O)[O-])n1/C(=C/c1c[nH]c2ccccc12)C(C)O (centres undefined) | 810 (≈ 253 µg/mL) | 410 (≈ 128 µg/mL) | 810 (≈ 253 µg/mL) | 1630 (≈ 509 µg/mL) | 410 (≈ 128 µg/mL) | 256 (≈ 820 µM) | 512 (≈ 1640 µM) | 410 (≈ 128 µg/mL) |  | 810 (≈ 253 µg/mL) | 128 (≈ 410 µM) | 810 (≈ 253 µg/mL) | 4 - 16
CC(=O)/C(=C\c1ccc(F)cc1)n1c([N+](=O)[O-])cnc1C | 880 (≈ 255 µg/mL) | 880 (≈ 255 µg/mL) | 1760 (≈ 509 µg/mL) | 1760 (≈ 509 µg/mL) | 440 (≈ 127 µg/mL) | 256 (≈ 885 µM) | 256 (≈ 885 µM) | 110 (≈ 31.8 µg/mL) |  | 1760 (≈ 509 µg/mL) | 128 (≈ 442 µM) | 1760 (≈ 509 µg/mL) | 4 - 16
CCn1c2ccccc2c2cc(/C=C(\C(C)=O)n3c([N+](=O)[O-])cnc3C)ccc21 | 1640 (≈ 637 µg/mL) | 820 (≈ 319 µg/mL) | 1640 (≈ 637 µg/mL) | 820 (≈ 319 µg/mL) | 1640 (≈ 637 µg/mL) | 256 (≈ 659 µM) | 512 (≈ 1320 µM) | 1640 (≈ 637 µg/mL) |  | 1640 (≈ 637 µg/mL) | 256 (≈ 659 µM) | 1640 (≈ 637 µg/mL) | 
CC(=O)/C(=C\c1ccc(Cl)cc1Cl)n1c([N+](=O)[O-])cnc1C | 1650 (≈ 561 µg/mL) | 830 (≈ 282 µg/mL) | 1650 (≈ 561 µg/mL) | 1650 (≈ 561 µg/mL) | 830 (≈ 282 µg/mL) | 512 (≈ 1510 µM) | 512 (≈ 1510 µM) | 1650 (≈ 561 µg/mL) |  | 1650 (≈ 561 µg/mL) | 128 (≈ 376 µM) | 1650 (≈ 561 µg/mL) | 
CCn1cc(C(=O)O)c(=O)c2cc(F)c(N3CCNCC3)cc21 [NORFLOXACIN] | 1600 (≈ 511 µg/mL) | 100 (≈ 31.9 µg/mL) | 1600 (≈ 511 µg/mL) | 200 (≈ 63.9 µg/mL) | 1600 (≈ 511 µg/mL) |  |  | 50 (≈ 16 µg/mL) |  | 25 (≈ 7.98 µg/mL) |  | 1600 (≈ 511 µg/mL) | 
CC(=O)/C(=C\c1ccccc1)n1c([N+](=O)[O-])cnc1C | 470 (≈ 127 µg/mL) | 470 (≈ 127 µg/mL) | 1880 (≈ 510 µg/mL) | 940 (≈ 255 µg/mL) | 470 (≈ 127 µg/mL) | 128 (≈ 472 µM) | 256 (≈ 944 µM) | 230 (≈ 62.4 µg/mL) |  | 940 (≈ 255 µg/mL) | 32 (≈ 118 µM) | 940 (≈ 255 µg/mL) | 4 - 16
Cc1ncc([N+](=O)[O-])n1/C(=C/c1ccc(F)cc1)C(C)O (centres undefined) | 880 (≈ 256 µg/mL) | 880 (≈ 256 µg/mL) | 1760 (≈ 513 µg/mL) | 1710 (≈ 498 µg/mL) | 110 (≈ 32 µg/mL) | 128 (≈ 439 µM) | 512 (≈ 1760 µM) | 440 (≈ 128 µg/mL) |  | 1710 (≈ 498 µg/mL) | 64 (≈ 220 µM) | 1710 (≈ 498 µg/mL) | 4 - 16
Cc1ncc([N+](=O)[O-])n1/C(=C/c1ccc(Cl)cc1Cl)C(C)O (centres undefined) | 1500 (≈ 513 µg/mL) | 1500 (≈ 513 µg/mL) | 1500 (≈ 513 µg/mL) | 1500 (≈ 513 µg/mL) | 750 (≈ 257 µg/mL) | 256 (≈ 748 µM) | 512 (≈ 1500 µM) | 1500 (≈ 513 µg/mL) |  | 1500 (≈ 513 µg/mL) | 64 (≈ 187 µM) | 1500 (≈ 513 µg/mL) | 
CC(=O)/C(=C\c1ccc(C)cc1)n1c([N+](=O)[O-])cnc1C | 1790 (≈ 511 µg/mL) | 900 (≈ 257 µg/mL) | 1790 (≈ 511 µg/mL) | 220 (≈ 62.8 µg/mL) | 450 (≈ 128 µg/mL) | 256 (≈ 897 µM) | 512 (≈ 1790 µM) | 56 (≈ 16 µg/mL) |  | 450 (≈ 128 µg/mL) | 256 (≈ 897 µM) | 900 (≈ 257 µg/mL) | 4 - 16
CC(=O)/C(=C\c1c[nH]c2ccccc12)n1c([N+](=O)[O-])cnc1C | 420 (≈ 130 µg/mL) | 830 (≈ 258 µg/mL) | 830 (≈ 258 µg/mL) | 1650 (≈ 512 µg/mL) | 420 (≈ 130 µg/mL) | 512 (≈ 1650 µM) | 512 (≈ 1650 µM) | 420 (≈ 130 µg/mL) |  | 830 (≈ 258 µg/mL) | 512 (≈ 1650 µM) | 1650 (≈ 512 µg/mL) | 4 - 16
OC(Cn1cncn1)(Cn1cncn1)c1ccc(F)cc1F [FLUCONAZOLE] |  |  |  |  |  | 256 (≈ 836 µM) | 8 (≈ 26.1 µM) |  |  |  | 8 (≈ 26.1 µM) |  | 
